From article PMC7261835, “New Brilliant Blue G Derivative as Pharmacological Tool in Retinal Surgery” (Frontiers in Pharmacology, 2020)

Columns and labels:
[1] = Ex vivo model of vitreoretinal surgery, dye quantification in retina by HPLC; set-up: species or system swine; details: porcine eye ex vivo, 40 µl of 0.05% PBB formulation, removed after 30 s, after ILM peeling
Source text: (§1) Ex vivo model of vitreoretinal surgery has been previously reported for evaluation of indocyanine green ILM staining properties ([Nakamura et al., 2003]). We carried out on swine eyes the same procedure previously reported on primates, with slight modifications. The following formulations have been tested in the ex vivo model of vitreoretinal surgery: Brilliant PeelTM (0.025% Brilliant Blue G BBG; Fluoron, Ulm, Germany); ILM-BlueTM (0.025% Brilliant Blue G; Dutch Ophthalmic Research Center (International) […], Italy); View-ILM® (0.03% methyl-Brilliant Blue […], Ponte San Nicolò-Padova, Italy); PBB® (0.05% Pure benzyl-Brilliant Blue G; Alfa-Instruments, Casoria, Italy). […] The levels of the dye molecules were quantified by means of HPLC analysis. […] The dried residue was reconstituted in 100 μl of mobile phase by vortexing for 120 s, filtered again on 0.45 μm filters, and, finally, 10-20 μl aliquots were injected into the chromatographic apparatus (each sample was analyzed in triplicate). […] BBG, Me-BBG, and PBB® were analyzed using three different isocratic ternary mobile phases consisting of (A) acetonitrile, (B) methanol, and (C) triethylamine 0.3% (v/v) in water (pH adjusted to 3.0 with trifluoroacetic acid) with different proportions (A:B:C) as follows: BBG 49:5:46 (v/v/v); Me-BBG 54:5:41 (v/v/v); PBB® 62:5:33 (v/v/v). […]

[2] = Ex vivo model of vitreoretinal surgery, dye quantification in ILM by HPLC; set-up: species or system swine; details: porcine eye ex vivo, 40 µl, 30 s
Source text: as §1

[3] = test system: proteins (fibronectin proteolytic fragment 45 kDa, E. coli beta-galactosidase, bovine serum albumin, chicken ovalbumin, equine cytochrome C); assay: Dye protein affinity assay: SDS-PAGE staining intensity, densitometry; assay type: binding; details: SDS-page protein bands, dyes 0.025% in fixative; compared to BBG and Me-BBG; p < 0.05
Protocol: In order to have the same dye/protein molar ratio for dye protein affinity assay, a set of molecular weight standards was obtained by mixing 430 nmol of the following proteins: i. fibronectin proteolytic fragment 45 kDa; ii. E. coli beta-galactosidase 116.3 kDa; iii. bovine serum albumin 66.5 kDa; iv. chicken ovalbumin 42.7 kDa; v. equine cytochrome C 12.3 kDa. Polyacrylamide gel electrophoresis was carried out loading the molecular weight standard in a 9% precast gels (Biorad), as triplicates on separate lanes. Gel electrophoresis was carried out at 20V for 60–90 min in denaturing conditions. After runs, each lane was cut and soaked overnight in a different staining solution, consisting of dyes dissolved at 0.025% in gel fixative solution (40% methanol, 20% acetic acid). Thereafter, gel lanes were decolored in the fixative solution without dyes, until the background stain reached the minimum level compared to stained protein bands. Images were collected with a scanner at 300 dpi, 16M colors. Densitometric analysis was done using the software ImageJ ([Rueden et al., 2017]). LogD values (pH 7.4) were calculated in silico using ACD/Labs software (version 11.1 2008, ACD Labs). […]

[4] = test system: purinergic ionotropic P2X7 receptor; set-up: method as in Bartlett et al., 2014; details: ref Bartlett et al., 2014; cited from earlier work

Q: With `CCOc1ccc(N(Cc2ccccc2)c2ccc(C(=C3C=CC(=[N+](CC)Cc4cccc(S(=O)(=O)[O-])c4)C=C3C)c3ccc(N(CC)Cc4cccc(S(=O)(=O)O)c4)cc3C)cc2)cc1` [Entry 7, pure benzyl-Brilliant Blue G] as the compound, how does the “dye levels in the retina” value [1] read?
A: 52 ng/mg

Q: And the “dye content in ILM compared to Brilliant Peel formulation (BBG)” value [2]?
A: higher, even though not statistical significant

Q: And the “fold increase of ILM dye levels compared to Me-BBG (View ILM) formulation” value ([2]; p < 0.05)?
A: 6.0 fold

Q: What about the “Protein binding quantified as staining intensity (% staining, % of control BBG)” value [3] of the same compound?
A: higher protein affinity (% staining) compared to BBG and Me-BBG

Q: With `CCOc1ccc(Nc2ccc(/C(=C3C=C/C(=[N+](/CC)Cc4cccc(S(=O)(=O)[O-])c4)C=C/3C)c3ccc(N(CC)Cc4cccc(S(=O)(=O)O)c4)cc3C)cc2)cc1` [Entry 1, Brilliant Blue G] as the compound, how does the P2X7 receptor antagonism [4] read?
A: potent selective non-competitive antagonist
